# Laboratory results: publication PMC6095690, “Coalescing beneficial host and deleterious antiparasitic actions as an antischistosomal strategy” (eLife, 2018)
# Read-outs that look alike come from different tables or passages of the source.
# Key:
# [1] = test system: parental HEK293 cell line expressing the GloSensor 22F cAMP sensor and lacking Sm.5HTRL; assay: counter-screen of agonist hits: basal cAMP luminescence in parental reporter line; type: cell-based
# Sm.5HTRL [2] = target: T1, Sm.5HTRL (Schistosoma mansoni, UniProt A0A173FEI8)
# Sm.5HTRL [3] = target: T1, Sm.5HTRL; assay: cell-based; conditions: for fold induction at 10 µM: HEK293, read-out: Sm.5HTRL agonism (fold change luminescence)
# [4] = test system: adult S. mansoni parasites; assay: adult worm movement assay ex vivo; parameters: species or system Schistosoma mansoni; conditions: for IC50: read-out: IC50 for inhibition of 5-HT evoked movement, 5-HT 200 µM
# [5] = test system: S. mansoni (mature infection in Swiss Webster mice); assay: hepatic shift assay in infected mice; conditions: intraperitoneal, sacrificed three hours later; dose not given
# [6] = agonist hit counter screen, cells lacking Sm.5HTRL
# [7] = primary screen, compound 10 µM then 5-HT 1 µM, 384 well, single replicate
# [8] = Schistosoma mansoni, ex vivo, ± 95% confidence interval
# T1 sequence (A0A173FEI8 1-547): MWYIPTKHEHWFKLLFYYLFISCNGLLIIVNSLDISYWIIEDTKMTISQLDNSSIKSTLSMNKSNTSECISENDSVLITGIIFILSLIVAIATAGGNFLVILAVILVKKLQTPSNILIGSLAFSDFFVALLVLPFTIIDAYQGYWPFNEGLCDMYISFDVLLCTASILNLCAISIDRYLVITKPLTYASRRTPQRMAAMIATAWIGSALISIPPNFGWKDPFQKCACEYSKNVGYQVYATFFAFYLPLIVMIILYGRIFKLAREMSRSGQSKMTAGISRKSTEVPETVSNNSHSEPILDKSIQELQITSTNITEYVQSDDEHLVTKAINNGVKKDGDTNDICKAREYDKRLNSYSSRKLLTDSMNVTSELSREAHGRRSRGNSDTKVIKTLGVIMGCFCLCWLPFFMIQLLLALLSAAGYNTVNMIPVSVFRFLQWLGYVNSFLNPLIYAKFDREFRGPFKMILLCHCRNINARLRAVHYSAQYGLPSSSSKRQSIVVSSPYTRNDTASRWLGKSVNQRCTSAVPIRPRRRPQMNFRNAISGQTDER
smiles,measurement,setting,value
Cc1ccc2[nH]c(CCN)cc2c1.Cl [ST070930],(-)Sm.5HTRL fold change,[1]; [6],1.1 fold change
same,(+) Sm.5HTRL fold change,Sm.5HTRL [2]; agonist hit validation,17.0489 fold change
"CC(C)C[C@H]1C(=O)N2CCC[C@H]2[C@]2(O)O[C@](NC(=O)[C@@H]3C=C4c5cccc6[nH]cc(c56)C[C@H]4N(C)C3)(C(C)C)C(=O)N12 [α-ergocryptine, reference compound]",type of activity at schistosome 5-HTRs,Sm.5HTRL [2],inactive
Nc1ncnc2c1ncn2[C@@H]1O[C@H](CO)[C@@H](O)[C@H]1O [ST009496],(-)Sm.5HTRL fold change,[1]; [6],3.9 fold change
same,(+) Sm.5HTRL fold change,Sm.5HTRL [2]; agonist hit validation,24.237 fold change
C=C[C@@]1(C)CC(=O)[C@@]2(O)[C@](C)(O1)[C@@H](OC(C)=O)[C@@H](O)C1C(C)(C)CC[C@H](O)[C@@]12C (stereo partly shown) [ST095786],(-)Sm.5HTRL fold change,[1]; [6],121.8 fold change
same,(+) Sm.5HTRL fold change,Sm.5HTRL [2]; agonist hit validation,95.4625 fold change
CCN1C[C@]2(COC)[C@H](O)C[C@H](OC)[C@]34C1[C@H]([C@H](OC)[C@H]23)[C@]1(OC(C)=O)[C@H]2[C@@H](OC(=O)c3ccccc3)[C@](O)(C[C@H]24)[C@@H](OC)[C@@H]1O [compound 56464],Sm.5HTRL agonism (fold change luminescence),Sm.5HTRL [2],1.997 fold change luminescence
same,Sm.5HTRL antagonism (% of control 5-HT response),Sm.5HTRL [2],1.042 % of control 5-HT response
Nc1ncnc2c1ncn2C1OC(CO)C(O)C1O (stereo not shown) [compound 7652],(-)Sm.5HTRL fold change,[1]; [6],7.802 fold change
same,(+) Sm.5HTRL fold change,Sm.5HTRL [2]; agonist hit validation,49.711 fold change
CNCCc1c[nH]c2ccc(O)cc12.O=C(O)C(=O)O [ST055634],(-)Sm.5HTRL fold change,[1]; [6],1.3 fold change
same,(+) Sm.5HTRL fold change,Sm.5HTRL [2]; hek293 cells,165.214 fold change
CN1CC(C(=O)NC2(C)OC3(O)C4CCCN4C(=O)C(Cc4ccccc4)N3C2=O)C=C2c3cccc4[nH]cc(c34)CC21.O=C(O)C(O)C(O)C(=O)O (stereo not shown) [ST072185],(-)Sm.5HTRL fold change,[1],1.0 fold change
same,(+) Sm.5HTRL fold change,Sm.5HTRL [2],29.8904 fold change
C[C@@H](CO)NC(=O)[C@@H]1C=C2c3cccc4[nH]cc(c34)C[C@H]2N(C)C1 [ST057158],(-)Sm.5HTRL fold change,[1]; [6],1.1 fold change
same,(+) Sm.5HTRL fold change,Sm.5HTRL [2],15.5169 fold change
Br.Oc1ccc(CC2NCCc3cc(O)c(O)cc32)cc1O (stereo not shown) [ST056944],(-)Sm.5HTRL fold change,[1],56.3 fold change
same,(+) Sm.5HTRL fold change,Sm.5HTRL [2]; hek293 cells,28.3016 fold change
COc1cc(C)c2c(c1C=O)Oc1c(c(C)c(O)c3c1C(O)OC3=O)OC2=O (stereo not shown) [compound 87511],Sm.5HTRL antagonism (% of control 5-HT response),Sm.5HTRL [2]; [7],0.8125 % of control 5-HT response
same,fold induction at 10 µM,Sm.5HTRL [3],0.635
COC(=O)C1=COC(C)C2CN3CCc4c([nH]c5cc(OC)c(OC)cc45)C3CC12.O=C(O)CC(O)(CC(=O)O)C(=O)O (stereo not shown) [compound 72715],(-)Sm.5HTRL fold change,[1]; [6],0.9445 fold change
same,(+) Sm.5HTRL fold change,Sm.5HTRL [2]; agonist hit validation,54.6116 fold change
Nc1nc(Cl)nc2c1ncn2C1OC(CO)C(O)C1O (stereo not shown) [ST088476],(-)Sm.5HTRL fold change,[1]; [6],3.8 fold change
same,(+) Sm.5HTRL fold change,Sm.5HTRL [2]; agonist hit validation,23.2211 fold change
"CCN(CC)C(=O)[C@@H]1C=C2c3cccc4[nH]cc(c34)C[C@H]2N(C)C1 [LSD, reference compound]",type of activity at schistosome 5-HTRs,Sm.5HTRL [2],partial agonist
same,EC50,"[4]; Schistosoma mansoni, ex vivo, ± 95% confidence interval, read-out: EC50 for stimulation of adult schistosome movement",1400 ± 500 nM
"CCN(CC)C(=O)N[C@H]1C[C@@H]2c3cccc4[nH]cc(c34)C[C@H]2N(C)C1 [terguride, Terguride, reference compound]",type of activity at schistosome 5-HTRs,Sm.5HTRL [2],antagonists
same,IC50,Sm.5HTRL [3],400 ± 50 nM
CN1C[C@H](C(=O)N[C@]2(C)O[C@@]3(O)[C@@H]4CCCN4C(=O)[C@H](Cc4ccccc4)N3C2=O)C[C@@H]2c3cccc4[nH]cc(c34)C[C@H]21.CS(=O)(=O)O [ST056346],(-)Sm.5HTRL fold change,[1]; [6],1.4 fold change
same,(+) Sm.5HTRL fold change,Sm.5HTRL [2],94.3413 fold change
"CC(C)C[C@H]1C(=O)N2CCC[C@H]2[C@]2(O)O[C@](NC(=O)[C@@H]3C=C4c5cccc6[nH]c(Br)c(c56)C[C@H]4N(C)C3)(C(C)C)C(=O)N12 [bromocriptine, Bromocriptine]",type of activity at schistosome 5-HTRs,Sm.5HTRL [2],antagonists
same,IC50,[4]; [8],331 ± 271 nM
same,5-HT (200 µM) stimulation of worm movement after preincubation with antagonist,"[4]; preincubation 1 µM, Figure 4B",5-HT stimulation was not observed
same,percentage of worms in the liver,[5],2.0 ± 2.8%
same,IC50,Sm.5HTRL [3],1600 ± 400 nM
COc1cc2c(c(OC)c1OC)-c1ccc(OC)c(=O)cc1[C@@H](NC(C)=O)CC2 [compound 757],Sm.5HTRL agonism (fold change luminescence),Sm.5HTRL [2],1.502 fold change luminescence
same,Sm.5HTRL antagonism (% of control 5-HT response),Sm.5HTRL [2],1.228 % of control 5-HT response
COc1cc(C(=O)NCCOc2ccccc2C)cc(OC)c1OC [ST005872],(-)Sm.5HTRL fold change,[1]; [6],0.7305 fold change
same,(+) Sm.5HTRL fold change,Sm.5HTRL [2]; agonist hit validation,10.4008 fold change
CNC[C@@H](O)c1ccc(O)c(O)c1 [compound 62786],(-)Sm.5HTRL fold change,[1]; [6],88.8519 fold change
same,(+) Sm.5HTRL fold change,Sm.5HTRL [2]; agonist hit validation,230.23 fold change
"CN1C[C@H](C(=O)N[C@]2(C)O[C@@]3(O)[C@@H]4CCCN4C(=O)[C@H](Cc4ccccc4)N3C2=O)C[C@@H]2c3cccc4[nH]cc(c34)C[C@H]21 [dihydroergotamine, Dihydroergotamine, reference compound]",type of activity at schistosome 5-HTRs,Sm.5HTRL [2],full agonists
O=c1ccc2nc3ccc(O)cc3oc-2c1 [compound 12097],Sm.5HTRL antagonism (% of control 5-HT response),Sm.5HTRL [2]; [7],0.7238 % of control 5-HT response
same,fold induction at 10 µM,Sm.5HTRL [3],0.635
COc1ccc(C2CC(=O)c3c(O)cc(OC4OC(CO)C(O)C(O)C4OC4OC(C)C(O)C(O)C4O)cc3O2)cc1O (stereo not shown) [compound 31048],Sm.5HTRL antagonism (% of control 5-HT response),Sm.5HTRL [2]; [7],1.138 % of control 5-HT response
same,fold induction at 10 µM,Sm.5HTRL [3],1.32
CNC[C@H](O)c1ccc(O)c(O)c1 [ST069368],(-)Sm.5HTRL fold change,[1]; [6],94.1 fold change
same,(+) Sm.5HTRL fold change,Sm.5HTRL [2]; agonist hit validation,60.6229 fold change
Nc1ncnc2c1ncn2[C@@H]1O[C@H](COP(=O)(O)OP(=O)(O)O)[C@@H](O)[C@H]1O [ST057097],(-)Sm.5HTRL fold change,[1]; [6],1.0 fold change
same,(+) Sm.5HTRL fold change,Sm.5HTRL [2]; agonist hit validation,11.9433 fold change
CNCC(O)c1ccc(O)cc1 (stereo not shown) [ST095769],(-)Sm.5HTRL fold change,[1]; [6],2.535 fold change
same,(+) Sm.5HTRL fold change,Sm.5HTRL [2]; agonist hit validation,11.737 fold change
NCCc1c[nH]c2cccc(OC(=O)c3ccc(C(=O)O)cc3)c12 [ST070282],(-)Sm.5HTRL fold change,[1]; [6],1.366 fold change
same,(+) Sm.5HTRL fold change,Sm.5HTRL [2]; hek293 cells,12.6864 fold change
"CCN(CC)C(=O)[C@@H]1C=C2c3cccc4[nH]c(Br)c(c34)C[C@H]2N(C)C1 [BOL-148, 2-Bromo-LSD]",type of activity at schistosome 5-HTRs,Sm.5HTRL [2],antagonists
same,IC50,[4]; [8],28.8 ± 23.1 nM
same,potency relative to bromocriptine,[4]; inhibition of 5-HT evoked movement,~ 10 fold
same,percentage of worms in the liver,[5],5.2 ± 2.3%
same,IC50,Sm.5HTRL [3],100 ± 20 nM
CC(C)NCC(O)c1ccc(O)c(O)c1 (stereo not shown) [ST077771],(-)Sm.5HTRL fold change,[1]; [6],15.0437 fold change
same,(+) Sm.5HTRL fold change,Sm.5HTRL [2]; agonist hit validation,12.8429 fold change
CC1=CC(=O)c2c(O)cccc2C1=O [ST069355],(+) Sm.5HTR 5-HT response (% of DMSO),Sm.5HTRL [2],0.03935 % of DMSO
Cl.NCCc1c[nH]c2ccc(Br)cc12 [ST093597],(-)Sm.5HTRL fold change,[1],1.1795 fold change
same,(+) Sm.5HTRL fold change,Sm.5HTRL [2]; hek293 cells,15.2823 fold change
C=C[C@]1(C)C=C2CC[C@@H]3[C@](C)(CCC[C@@]3(C)C(=O)O)[C@H]2CC1 [compound 6435],(-)Sm.5HTRL fold change,[1]; [6],0.9901 fold change
same,(+) Sm.5HTRL fold change,Sm.5HTRL [2]; agonist hit validation,200.129 fold change
